Test results as given in patent US6362208B1, “Anilide compounds and drugs containing the same” (Kowa Company, Ltd., priority 1997, dated 2002).

Tests used:
[1] = target: T1, ACAT in J774 cells (Mus musculus, UniProt Q61263); test: ACAT inhibitory action (anti-foaming action) in J774 cells, cholesterol ester formation; format: cell-based; settings: for IC50: J774 cells, 10 μg/ml 25-OH cholesterol, 18-hr culturing, cholesterol ester per protein, read-out: IC50 (μM) of J774-derived enzyme; for IC50 (HepG2)/IC50 (J774): ratio HepG2 / J774
T1 construct: J774 cells or HepG2 cells were inoculated on a 24-well plate; endogenous in cells; host or cells: J774 cells
T1 sequence (Q61263 1-540): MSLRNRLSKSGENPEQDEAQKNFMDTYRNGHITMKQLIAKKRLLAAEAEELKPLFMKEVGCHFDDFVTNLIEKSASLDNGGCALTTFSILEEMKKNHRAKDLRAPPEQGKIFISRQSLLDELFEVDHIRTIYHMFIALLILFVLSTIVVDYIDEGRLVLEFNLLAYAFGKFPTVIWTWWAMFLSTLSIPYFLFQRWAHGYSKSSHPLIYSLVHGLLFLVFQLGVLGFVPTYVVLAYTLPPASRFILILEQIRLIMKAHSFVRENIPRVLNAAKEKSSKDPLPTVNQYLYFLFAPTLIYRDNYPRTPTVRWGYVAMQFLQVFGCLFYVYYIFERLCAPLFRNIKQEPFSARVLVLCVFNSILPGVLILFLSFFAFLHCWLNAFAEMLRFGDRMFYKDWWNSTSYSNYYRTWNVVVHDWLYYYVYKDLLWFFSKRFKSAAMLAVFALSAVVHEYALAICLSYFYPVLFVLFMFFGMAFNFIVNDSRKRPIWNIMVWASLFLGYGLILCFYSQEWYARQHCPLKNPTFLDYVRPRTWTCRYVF
Protocol: (§1) J774 cells or HepG2 cells were inoculated on a 24-well plate; J774 cells and HepG2 cells were cultured in DMEM and MEM culture broths (each of the broths containing 10% calf fetus serum), respectively, in a 5% CO2 incubator at 37° C. for 24 hours. […] After discarding the culture media, the resulting cultures were rinsed twice with PBS and extracted with 1.5 ml of hexane:isopropanol (3:2), for concentration and drying. The extracts were dissolved in isopropanol containing 0.2 ml of 10% Triton X-100, to assay total cholesterol (TC) and free cholesterol (FC) by using Cholesterol E Test WAKO (manufactured by Wako Pure Chemicals, Co.) and Free Cholesterol E Test Wako (manufactured by Wako Pure Chemicals, Co.). […] Based on the difference between TC and FC, cholesterol ester was calculated per protein, to determine IC50, compared with the calculated control IC50 value.

[2] = test system: ACAT in HepG2 cells; test: ACAT inhibitory action in HepG2 cells, cholesterol ester formation; format: cell-based; settings: 10 μg/ml 25-OH cholesterol, 18-hr culturing, cholesterol ester per protein, read-out: IC50 (μM) of HepG2-derived enzyme
Protocol: as §1

| SMILES | IC50 [1] | IC50 (HepG2)/IC50 (J774) [1] | IC50 [2] | melting point |
| --- | --- | --- | --- | --- |
| CC(C)c1cccc(C(C)C)c1NC(=O)C(C)(C)CCCOc1ccc2c(c1)C=C(c1nccn1C)C(CCc1ccc(F)cc1)O2 (centres unmarked) [Control 1, 5-[2-(2-(4-fluorophenyl)ethyl)-3-(1-methyl-1H-imidazol-2-yl)-2H-1-benzopyran-6-yl]oxy-2,2-dimethyl-N-(2,6-diisopropylphenyl)pentanamide, reference compound] | 0.56 µM | 9.5 |  |  |
| CC(C)c1cccc(C(C)C)c1NC(=O)CCCCCSc1nc2ncccc2o1 [Example 1, 6-(oxazolo[4,5-b]pyridin-2-ylthio)-N-(2,6-diisopropylphenyl)hexanamide] | 1.3 µM | 3.2 | 4.1 µM | 94 to 95 °C |
| CC(C)c1cccc(C(C)C)c1NC(=O)CCCCCSc1nc2cnccc2[nH]1 [Example 6, 6-(imidazolo[4,5-c]pyridin-2-ylthio)-N-(2,6-diisopropylphenyl)hexanamide] | 10 µM | 1.0 | 10 µM | 96 to 98 °C |
| CC(C)c1cccc(C(C)C)c1NC(=O)CCCCCNc1nc2cccnc2o1 [Example 20, 6-(oxazolo[5,4-b]pyridin-2-ylamino)-N-(2,6-diisopropylphenyl)hexanamide] |  |  |  | 177 to 178 °C |
| CC(C)c1cccc(C(C)C)c1NC(=O)CCCCCSc1nc2cccnc2s1 [Example 21, 6-(thiazolo[5,4-b]pyridin-2-ylthio)-N-(2,6-diisopropylphenyl)hexanamide] |  |  |  | 137 to 138 °C |
| CC(C)c1cccc(C(C)C)c1NC(=O)CCCCCSc1nc2cc(N(C)C)ccc2o1 [Example 38, 6-(5-N,N-dimethylaminobenzoxazol-2-ylthio)-N-(2,6-diisopropylphenyl)hexanamide] | 1.83 µM |  |  | 130 to 132 °C |
| COC(=O)c1ccc2nc(SCCCCCC(=O)Nc3c(C(C)C)cccc3C(C)C)oc2c1 [Example 40, 6-(6-methoxycarbonylbenzoxazol-2-ylthio)-N-(2,6-diisopropylphenyl)hexanamide] |  |  |  | 157 to 158 °C |
| CC(C)c1cccc(C(C)C)c1NC(=O)CCCCCSc1nc2ccc(CN(C)C)cc2o1 [Example 43, 6-[6-(N,N-dimethylaminomethyl)benzoxazol-2-ylthio]-N-(2,6-diisopropylphenyl)hexanamide] |  |  |  | 82 to 84 °C |
| COC(=O)c1ccc2nc(SCCCCCCCCC(=O)Nc3c(C(C)C)cccc3C(C)C)oc2c1 [Example 54, 9-(6-methoxycarbonylbenzoxazol-2-ylthio)-N-(2,6-diisopropylphenyl)nonanamide] |  |  |  | 122 to 124 °C |
| COC(=O)c1cccc2nc(SCCCCCCCNC(=O)Nc3c(C(C)C)cccc3C(C)C)oc12 [Example 55, N-(2,6-diisopropylphenyl)-N′-[7-(7-methoxycarbonylbenzoxazol-2-ylthio)heptyl]urea] |  |  |  | 179 to 181 °C |
| COC(=O)c1cccc2nc([S+]([O-])CCCCCCCNC(=O)Nc3c(C(C)C)cccc3C(C)C)oc12 (centres unmarked) [Example 56, N-(2,6-diisopropylphenyl)-N′-[7-(7-methoxycarbonylbenzoxazol-2-ylsulfinyl)heptyl]urea] |  |  |  | 145 to 147 °C |
| COC(=O)c1cccc2nc(SCCCCCC(=O)Nc3c(OC)cc(OC)cc3OC)oc12 [Example 62, 6-(7-methoxycarbonylbenzoxazol-2-ylthio)-N-(2,4,6-trimethoxyphenyl)hexanamide] |  |  |  | 136 to 138 °C |
| COC(=O)c1ccc2nc(SCCCCCC(=O)Nc3c(C(C)C)cccc3C(C)C)[nH]c2c1 [Example 63, 6-(5-methoxycarbonylbenzimidazol-2-ylthio)-N-(2,6-diisopropylphenyl)hexanamide] |  |  |  | 190 to 192 °C |
| CC(C)c1cccc(C(C)C)c1NC(=O)CCCCCSc1ncc[nH]1 [Example 68, 6-(imidazol-2-ylthio)-N-(2,6-diisopropylphenyl)hexanamide] |  |  |  | 190 to 191 °C |
| COC(=O)c1c(O)ccc2nc(SCCCCCC(=O)Nc3c(C(C)C)cccc3C(C)C)oc12 [Example 91, 6-[6-hydroxy-7-methoxycarbonylbenzoxazol-2-ylthio)-N-(2,6-diisopropylphenyl)hexanamide] |  |  |  | 155 to 156 °C |

More lines, now with the values ahead:

| IC50 [1] | IC50 (HepG2)/IC50 (J774) [1] | IC50 [2] | melting point | SMILES |
| --- | --- | --- | --- | --- |
| 1.31 µM |  |  | 113 to 115 °C | CC(C)c1cccc(C(C)C)c1NC(=O)CCCCCSc1nc2c(CN(C)C)cccc2o1 [Example 27, 6-[4-(N,N-dimethylaminomethyl)benzoxazol-2-ylthio]-N-(2,6-diisopropylphenyl)hexanamide] |
| 0.47 µM | 0.9 | 0.42 µM | 129 to 130 °C | CC(C)c1cccc(C(C)C)c1NC(=O)CCCCCSc1nc2c(N(C)C)cccc2o1 [Example 28, 6-(4-N,N-dimethylaminobenzoxazol-2-ylthio)-N-(2,6-diisopropylphenyl)hexanamide] |
|  |  |  | 93 to 95 °C | CC(C)c1cccc(C(C)C)c1NC(=O)CCCCCSc1nc2ccc(CO)cc2o1 [Example 42, 6-(6-hydroxymethylbenzoxazol-2-ylthio)-N-(2,6-diisopropylphenyl)hexanamide] |
|  |  |  | 175 to 177 °C | CC(C)c1cccc(C(C)C)c1NC(=O)CCCCCSc1nc2cccc(C(=O)O)c2o1 [Example 47, 6-(7-carboxybenzoxazol-2-ylthio)-N-(2,6-diisopropylphenyl)hexanamide] |
|  |  |  | 91 to 92 °C | CC(C)c1cccc(C(C)C)c1NC(=O)CCCCCSc1nc2cccc(CO)c2o1 [Example 48, 6-[7-hydroxymethylbenzoxazol-2-ylthio]-N-(2,6-diisopropylphenyl)hexanamide] |
|  |  |  | 102 to 104 °C | CC(C)c1cccc(C(C)C)c1NC(=O)CCCCCSc1nc2cccc(CN(C)C)c2o1 [Example 49, 6-[7-(N,N-dimethylaminomethyl)benzoxazol-2-ylthio]-N-(2,6-diisopropylphenyl)hexanamide] |
|  |  |  | 129 to 130 °C | CC(C)c1cccc(C(C)C)c1NC(=O)CCCCCSc1nc2cccc(N(C)C)c2o1 [Example 50, 6-(7-N,N-dimethylaminobenzoxazol-2-ylthio)-N-(2,6-diisopropylphenyl)hexanamide] |
|  |  |  | 117 to 118 °C | CC(C)c1cccc(C(C)C)c1NC(=O)CCCCCSc1nc2cccc(CN3CCOCC3)c2o1 [Example 51, 6-[7-(1-morpholino)methylbenzoxazol-2-ylthio]-N-(2,6-diisopropylphenyl)hexanamide] |
|  |  |  | 218 to 220 °C | CC(C)c1cccc(C(C)C)c1NC(=O)CCCCCSc1nc2cccc(-c3nnn[nH]3)c2o1 [Example 52, 6-[7-(tetrazol-5-yl)benzoxazol-2-ylthio)-N-(2,6-diisopropylphenyl)hexanamide] |
|  |  |  | 130 °C | CC(C)c1cccc(C(C)C)c1NC(=O)CCCCCSc1nc2cccc(C(F)(F)F)c2o1 [Example 74, 6-(7-trifluoromethylbenzoxazol-2-ylthio)-N-(2,6-diisopropylphenyl)hexanamide] |
|  |  |  | 114 to 116 °C | CCOC(=O)c1cccc2nc(SCCCCCC(=O)Nc3c(C(C)C)cccc3C(C)C)oc12 [Example 79, 6-(7-ethoxycarbonylbenzoxazol-2-ylthio)-N-(2,6-diisopropylphenyl)hexanamide] |
